Experimental findings from patent US8748483B2, “Use of substituted pyranone acid derivatives for the treatment of metabolic syndrome” (SANOFI, priority 2007, dated 2014) are described below.

Experiment [1] addresses T1, GPCR HM74A (niacin receptor) (Homo sapiens, UniProt Q8TDS4).
T1 construct: expressed in transfected cells; host or cells: HEK293
Kind of experiment: FLIPR in vitro functional assay, intracellular Ca2+ in recombinant HEK293 cells expressing HM74A and Gα6qi4myr. The conditions noted are these: 100% = 1 μM niacin. In kind it is cell-based. The procedure:
Function-testing assays were carried out by means of the FLIPR technique (“Fluorescence Imaging Plate Reader”, Molecular Devices Corp.). For this purpose, agonist-induced changes in the intracellular concentration of Ca^2+ in recombinant HEK293 cells which express both the GPCR HM74A (niacin receptor) and the hybrid G-protein Gα6qi4myr (see, for example, DE patent application 10033353) were determined.
For the investigations, cells were seeded into 96-well microtiter plates (60 000 cells/well) and allowed to grow overnight. The medium was removed and the cells were incubated in buffer which contained the fluorescent dye Fluo-4. After this loading with dye, the cells were washed, test substance was added, and changes in the intracellular Ca^2+ concentration were measured in the FLIPR apparatus. Results have been shown as percentage change relative to the control (0%: no test substance added; 100%:1 μM reference agonist niacin added), used to calculate dose/activity plots and EC50 values determined.

The subject of experiment [2] is lipolysis. Put plainly: Inhibition of lipolysis in the whole animal after p.o. administration (FFA, glycerol, triglycerides in blood). The conditions noted are these: 3 mg/kg po. The class given is in vivo, Wistar rats. As for the experimental part:
The effect was tested on the whole animal (mouse, rat, hamster or dog), after a fasting period (e.g. of about 16 hours the substance is administered (e.g. p.o., iv., i.p., s.c.) and, with or without additional stimulation of endogenous lipolysis (e.g. by a bolus injection of 2 mg/kg i.p. isoprenaline), the effect of the test substance on lipolysis is determined on the basis of the liberated free fatty acids (FFA), glycerol and triglycerides by obtaining a blood sample (e.g. by retroorbital blood sampling) e.g. 15 min, 30, 60, 120 etc minutes after p.o. administration, and analyzing by standard methods of clinical chemistry (e.g. L. Thomas: Labor and Diagnose, 2nd edition, Medizinische Verlagsgesellschaft, Marburg/L. 1984; ISBN 3-921320-10-9)). The inhibition of lipolysis by the inhibitors is analyzed by comparing with the rate of lipolysis in correspondingly treated control animals.

T1 sequence (Q8TDS4 whole entry): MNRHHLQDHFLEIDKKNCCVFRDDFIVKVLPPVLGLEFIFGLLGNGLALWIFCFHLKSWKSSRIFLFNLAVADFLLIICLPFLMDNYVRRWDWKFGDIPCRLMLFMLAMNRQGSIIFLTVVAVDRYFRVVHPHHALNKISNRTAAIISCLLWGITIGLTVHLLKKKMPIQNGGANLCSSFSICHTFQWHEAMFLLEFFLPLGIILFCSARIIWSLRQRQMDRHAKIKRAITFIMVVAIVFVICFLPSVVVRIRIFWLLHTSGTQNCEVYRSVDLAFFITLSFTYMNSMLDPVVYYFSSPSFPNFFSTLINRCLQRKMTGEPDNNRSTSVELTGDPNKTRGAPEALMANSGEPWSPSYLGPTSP

For the compound `CCC(C)c1coc(C(=O)O)cc1=O` (centres unmarked) [Example 50], in experiment [1], the EC50 (commonly the concentration needed to bring the measured effect to its halfway point) amounted to 0.16 µM. Further, the “lipolysis (reduction in FFA, glycerol and triglycerides)” value in experiment [2] was “distinctly reduced”. The FFA in experiment [2] (15 min, Wistar rats) was 0.34 mmol/L; in experiment [2] (30 min, Wistar rats) it was 0.43 mmol/L; in experiment [2] (60 min, Wistar rats), 0.50 mmol/L; in experiment [2] (120 min, Wistar rats), 0.52 mmol/L; in experiment [2] (time 0, Wistar rats), 0.64 mmol/L. For the same compound, the Glycerol was found to be 67 µmol/L in experiment [2] (15 min, Wistar rats); 82 µmol/L in experiment [2] (30 min, Wistar rats); 86 µmol/L in experiment [2] (60 min, Wistar rats); 101 µmol/L in experiment [2] (120 min, Wistar rats); 127 µmol/L in experiment [2] (time 0, Wistar rats). For the same compound, the Triglycerides in experiment [2] (15 min, Wistar rats) was found to be 0.39 mmol/L; in experiment [2] (30 min, Wistar rats) it was 0.36 mmol/L; in experiment [2] (60 min, Wistar rats) it was 0.58 mmol/L; in experiment [2] (120 min, Wistar rats), 0.71 mmol/L; in experiment [2] (time 0, Wistar rats) it was 0.47 mmol/L.
